# According to patent publication US11939377B2, “Affinity matured CD22-specific monoclonal antibody and uses thereof” (The U.S.A., as represented by the Secretary, Department of …, priority 2018, dated 2024):
# How the values were obtained:
# [1] = test system: Nalm6, Nalm6 CRISPR variant, SEM or PDX leukemia; assay: Nalm6 / SEM xenograft and PDX in vivo studies (IVIS luminescence); set-up: species or system NSG mice
# CD22 = assay: Immunofluorescent staining of CD22 in permeabilized leukemia cells; type: cell-based, human; details: 24 hours after exposure, 1 nM
# Protocol: FIGS. 10A-10E: (FIG. 10A) Three cell lines (Toldeo, Kopn8 and Nalm6) were co-incubated with Bryostatin 1 at varying concentrations for 24 hours. At 24 hours, cells were collected for protein kinase C (PKC)-βII isoform analysis by western blot. (FIG. 10B) KOPN8 or SEM cell lines were exposed to Bryostatin 1 for 16, 24, 48 or 72 hours. RNA was extracted from cells and analyzed using RNAseq. (FIG. 10C) Immunofluorescent staining of CD22 was conducted through permeabilization followed by staining of CD22. (FIG. 10D) Four cell lines were co-incubated with various combinations of Enzastaurin (10 μM), Staurosporine (100 μM), or Bryostatin 1 (1 nM) for 24 hours. CD22 expression was assessed using flow cytometry. MFI fold change=CD22 MFI^Bryostatin1/CD22 MFI^DMSO. (FIG. 10E) Cell lines were co-incubated with 1 nM Bryostatin 1 for 24 hours and measured for CD22 expression using CD22-PE antibody. MFI fold change=CD22 MFI^Bryostatin 1/CD22 MFI^DMSO.
# μ-dish 35 mm, high glass bottom dishes (Ibidi Inc, Madison, WI) were coated with poly-D-lysine for 2 hours and then seeded with 5×10^5 leukemia cells, which had been pre-treated with either 1 nM Bryostatin 1 or DMSO control for 24 hours. Approximately 12 hours after seeding, cells were fixed in 4% paraformaldehyde and then permeabilized with 0.2% Triton X-100 detergent. […]
# [2] = test system: CD22^neg, CD22^lo or Nalm6 cells; assay: In vitro leukemia clearance assay (IncuCyte, loss of GFP-positive cells); type: cell-based, human; details: effector-to-target 1:1
# Protocol: Cell death was monitored by loss of GFP-positive cells using Incucyte analysis. (FIG. 2B) NSG mice were injected with 1×10^6 GPF-positive CD22neg, CD22lo, or Nalm6 tumor cells on Day 0. […] Mice were imaged using IVIS technology after luciferin-D IP injection. […] Cells were stained for flow cytometry and analyzed on a Fortessa flow machine. (FIG. 2E) Site density cell lines were co-incubated with CD22 CART for 24 hours, and PD1 expression was stained for flow cytometry and analyzed on Fortessa flow machine. MFI=mean fluorescence intensity. […] (FIG. 2G) CD22 site density was evaluated using flow cytometry and Quantibrite analysis for CRISPR-edited Nalm6 cell lines.
# FIGS. 5A-5D: (FIGS. 5A-5B) CD22 CART cells were co-incubated with 1 ng/ml of Bryostatin 1 for 24 hours and washed. […] IFN-γ (FIG. 5A) and granzyme B (FIG. 5B) were measured by ELISA from cell culture supernatants. Statistical analysis was performed using an unpaired t-test (**** p<0.0001, *** p<0.0002, ** p<0.0021, * p<0.0332). […] Cell death was monitored by loss of GFP-positive cells using Incucyte analysis. (FIG. 5D) NSG mice were injected with Nalm6 on Day 0, CD22 CART cells on Day 3, and then were given either DMSO control or Bryostatin 1 at 0.8 μg/kg once weekly for 2 weeks. Leukemia progression was monitored using IVIS technology and luciferin-D IP injections. […]
smiles,measurement,setting,value
CCC/C=C/C=C/C(=O)O[C@H]1/C(=C/C(=O)OC)C[C@H]2C[C@H]([C@@H](C)O)OC(=O)C[C@H](O)C[C@@H]3C[C@H](OC(C)=O)C(C)(C)[C@](O)(C[C@@H]4C/C(=C/C(=O)OC)C[C@H](/C=C/C(C)(C)[C@]1(O)O2)O4)O3 [Bryostatin 1],durability of remission after subcurative dose of CD22 CART,"[1]; Nalm6 and SEM, 40 μg/kg once weekly for 2 weeks",improved durability of remission
same,efficacy of the CD19 CAR in vivo,"[1]; SEM, 40 μg/kg once weekly for 2 weeks",did not reduce efficacy
same,ability of CD22-CAR to attenuate progression of CD22^lo leukemia in vivo,[1]; once weekly for 2 weeks after CD22 CART,did not impact
same,vacuolated CD22 compared to DMSO controls,CD22,less vacuolated CD22
same,kinetics of leukemic clearance in vitro by drug-exposed CAR T cells,[2],no change
